Experimental data as given in patent US20110136728A1, “METHODS OF INCREASING BONE FORMATION USING LEPTIN-RELATED PEPTIDES” (priority 2009, published 2011).
“Also recorded” adds a separate entry of the source. Non-standard residues stand in square brackets, D forms with d. Residues, ends and D or L forms follow the SMILES beside them.

What was measured:
[1] = system: male C57BL/6J wild type mice; test: Oral delivery (gavage) in ad libitum fed wild type mice: body weight, food and water intake, serum glucose, serum osteocalcin; assay type: in vivo, mouse
Description: Six week-old male C57BL/6J wild type and ob/ob mice were obtained from Jackson Laboratories (Bar Harbor, Me., USA). The animals were housed individually polycarbonate cages fitted with stainless steel wire lids and air filters, and supported on ventilated racks (Thoren Caging Systems, Hazelton, Pa., USA) in the Albany Medical College Animal Resources Facility. The mice were maintained at a constant temperature (24° C.) with lights on from 07:00 to 19:00, and allowed food and water ad libitum for 6 days following arrival. During the test period, mice were fed ad libitum or calorie restricted to 60% of normal. Water intake was allowed ad libitum.
On day 1 of the study, and on each day thereafter, a water bottle containing 200 ml of water was added to each cage between 09:00 and 10:00 h. Mice fed ad libitum were given 200 g of pelleted rodent diet (Prolab Rat, Mouse, Hamster 3000, St. Louis, Mo.; 22% crude protein, 5% crude fat, 5% fiber, 6% ash, 2.5% additional minerals) between 09:00 and 10:00 h each day. The mice were weighed once daily between 09:00 and 10:00 h on an Acculab V-333 electronic balance (Cole-Parmer, Vernon Hills, Ill., USA). Calorie-restricted wild type and ob/ob mice received 60% of normal daily intake. Twenty four hours later, food and water remaining in the cages was measured to the nearest 0.1 g and 0.1 ml, respectively. To assure fasting glucose levels on days in which blood glucose was measured, food was removed from the cages between 09:00 and 10:00 h, and replaced immediately before the beginning of the dark cycle.
Mouse [D-Leu-4]OB3 was prepared commercially as a C-terminal amide by Bachem (Torrance, Calif., USA). The peptide was dissolved in 0.3% Intravail A3® (Aegis Therapeutics, San Diego, Calif. USA) reconstituted in water, and administered by gavage once daily for 10 days at a concentration of 1 mg/200 μl immediately before the start of the dark cycle. Is has previously been shown that this is the optimum concentration of mouse [D-Leu-4]-OB3 and its related bioactive peptide amides, for regulating energy expenditure, glucose levels, and insulin sensitivity in two genetically obese mouse models (see Rozhayskaya-Arena M. et al., Endocrinology 141:2501-2517 (2000); Grasso P. et al. Regulatory Pep. 101:123-129 (2001); Grasso P. et al., Diabetes 48:2204-2209 (1999), Grasso P. et al., Endocrinology 138:1413-1418 (1997); Grasso P. et al., Regulatory Peptides 85:93-100 (1999); and Grasso P. et al., Diabetes 48:2204-2209 (1999)). Vehicle injected control mice received 200 ul of Intravail A3® only.
Initial blood samples were drawn by snipping the end of the tail of each mouse at the beginning of the study (day 0); subsequent samples were obtained by gently removing the scab. Blood was taken 1 h before the onset of the dark period at the beginning of the study, and after 2, 4, 6, 8, and 10 days of treatment. The blood was applied to a test strip, and glucose levels were measured with a Glucometer Elite glucose meter (Bayer, Elkhart, Ind., USA).
At the end of the study, the mice were anesthetized with isoflurane (5%) and exsanguinated by cardiac puncture. Euthanasia was confirmed by cervical dislocation. The blood was collected in sterile nonheparinized plastic centrifuge tubes and allowed to stand at room temperature for 1 h. The clotted blood was rimmed from the walls of the tubes with sterile wooden applicator sticks. Individual serum samples were prepared by centrifugation for 30 min at 2600×g in an Eppendorf 5702R, A-4-38 rotor (Eppendorf North America, Westbury, N.Y., USA). The serum samples in each experimental group (n=6) were pooled and stored frozen until assayed for osteocalcin content.
Serum osteocalcin in the pooled samples was assayed in triplicate with a mouse osteocalcin ELISA kit obtained from Biomedical Technologies, Inc. (Stoughton, Mass., USA) according to the instructions supplied by the manufacturer. […]

ob/ob mouse model = test: Earlier study of OB3 and D-amino acid-substituted OB3 analogs: body weight gain, food and water intake, blood glucose; assay type: in vivo
Description: Single-point D-amino acid substitution was used to study the structure-function relationships of each amino acid residue in OB3, and to increase its efficacy. The restricted domain represented by OB3 contains a functional epitope, which has the ability to mimic at least some of the effects of leptin on energy balance and glucose homeostasis.
The design of peptide ligands involved the introduction of conformational constraints into native sequences by techniques that include, but are not limited to, D-amino acid substitution or cyclization. (Hruby and Bonner, Methods Mol Biol. 35:201-40 (1994)). Systematic replacement of L-amino acids by their D-amino acid isoforms was used to determine the stereostructural requirements of specific residues in a peptide for peptide-receptor interaction, and to assess the contribution of certain secondary structural motifs, e.g., α-helix or β-turn, to the bioactivity of the peptide. (Hruby, Biopolymers 33(7):1073-82 (1993) and Hruby, Life Sci. 52(10):845-55 (1993)). This approach increased peptide resistance to enzymatic hydrolysis, and to enhance the properties of biologically active peptides, including receptor binding, functional potency, and duration of action. (See Fauchere et al., Adv. Drug Res., 23:127-139 (1992); Doherty et al., J. Med. Chem., 36:2585-2594 (1993); Kirby et al., J. Med. Chem., 36:3802-3808 (1993); Morita et al., FEBS Lett., 353:84-88 (1994)).
(See Rozhayskaya-Arena M, et al., Endocrinology 141:2501-2517 (2000); Grasso P et al., Regulatory Pep. 101:123-129 (2001)).

[2] = 1 mg/day, 10 days, gavage in Intravail

CC(C)C[C@@H](NC(=O)[C@H](CO)NC(=O)[C@H](CS)NC(=O)[C@@H](N)CO)C(=O)N1CCC[C@H]1C(=O)N[C@@H](CCC(N)=O)C(=O)N[C@H](C(N)=O)[C@@H](C)O [mouse [D-Leu-4]-OB3] (H-SCS[dL]PQT-NH2; N-terminus assumed)
Body weight (% of initial) [1, 2]: 95.6 ± 0.5 % of initial
Final body weight [1, 2]: 21.6 ± 0.7 g
Serum osteocalcin [1, 2]: 246.6 ± 6.0 ng/mL
daily food intake compared to Intravail treated controls ([1]; 10 days gavage): not associated with any significant difference in daily food intake
serum glucose after treatment ([1]; 10 days gavage): significantly (P<0.001) reduced
serum osteocalcin levels compared to Intravail treated controls ([1]; 10 days gavage): essentially the same; also recorded: slightly elevated
water intake compared to Intravail treated controls ([1]; 10 days gavage): essentially the same; also recorded: no significant difference in water intake
loss of initial body weight ([1]; after 10 days gavage): 4.4%
Final serum glucose ([1]; after 10 days, 1 mg/day gavage in Intravail): 124.5 ± 24.6 mg/dL
Initial serum glucose ([1]; day 0): 173.3 ± 7.3 mg/dL
Initial body weight ([1]; day 0, 1 mg/day, 10 days, gavage in Intravail): 22.6 ± 0.8 g
reduction of body weight gain ([1]; oral delivery): 4.4%
reduction of food intake ([1]; oral delivery): 6.8%
reduction of serum glucose ([1]; oral delivery): 28.2%
effectiveness compared to the other D-amino acid-substituted analogs (ob/ob mouse model; compared to OB3, in most of the parameters measured): more effective than the other D-amino acid-substituted analogs
Water intake (ob/ob mouse model; mouse, in vivo): significantly reduced water intake
anorexigenic activity compared with OB3 (ob/ob mouse model; mouse, in vivo): greater anorexigenic activity than OB3
antihyperglycemic effect and its time course (ob/ob mouse model; mouse, in vivo): lowered blood glucose to levels seen in nondiabetic wild type mice within two days of peptide treatment
potency in reducing body weight gain relative to native OB3 (ob/ob mouse model; mouse, in vivo): 2.6 fold
